Compound	melting point
CCOC(=O)NCCc1cc2ccccc2s1	65 to 66 °C
COc1ccc(S(=O)(=O)C2(C(=O)O)CCN(CCOc3ccccc3)CC2)cc1	235 °C
Cc1nc2c(N)nc3c(c2n1CCCCS(=O)(=O)C(C)(C)C)CCCC3	208 to 210 °C
O=C(O)c1cc(Cl)ccc1OCc1ccccc1	113 to 115 °C
CCn1ncc(C(=O)c2ccc(S(C)(=O)=O)c(C(=O)OC)c2C)c1O	150 to 152 °C
Cc1cn(C2CC(F)C(CO)O2)c(=S)[nH]c1=S (stereo not given)	164 to 165 °C
COc1ccc2c(c1)Sc1cc(OC(C)=O)c(OC)cc1N2	172 to 174 °C
O=C(O)C1Cc2ccccc2N1C(=O)c1ccccc1 (stereo not given)	209 to 210 °C
COc1ccc(Cn2cnc3c(Cl)nc([N+](=O)[O-])nc32)cc1	181 to 182 °C
Cc1cn(CC(=O)c2ccc(-c3ccc(N4C[C@H](Cn5ccnn5)OC4=O)cc3F)cn2)c(C)n1	78 °C
CN(c1ccc(OC(F)(F)F)cc1)C1CCN(C[C@@]2(C)Cn3cc([N+](=O)[O-])nc3O2)CC1	133 to 134 °C
COCCOC(=O)Nc1cccc(C)c1COc1cccn2c(CO)c(C)nc12	121 to 123 °C
C[C@@H](S[C@H]1CO[C@H](/C=C/c2cccnc2)OC1)[C@](O)(Cn1cncn1)c1ccc(F)cc1F	118 to 125 °C
CC1CC2=CC(=O)CCC2=C2CCC3(C)C(=O)CCC3C21 (stereo not given)	204 to 205 °C
O=C(O)c1cccc(Cl)c1C[PH](=O)CO (stereo not given)	219 to 220 °C
CCCc1nc2c(N)nc3ccccc3c2n1CCCCCC(N)=O	210 to 211 °C
CCN(CC)C(=O)Nc1ccc2c(c1)C(c1ccccc1F)=NCC(=O)N2C	138 to 139 °C

Compound	melting point
NC(=O)CC(CC(N)=O)c1cccc(OCc2ccccc2)c1	205 to 207 °C
COc1ccc(S(=O)(=O)C2(C(=O)O)CCN(Cc3ccc(-c4cccs4)cc3)CC2)cc1	235 °C
CCOC(=O)C(C)(C)CCCCOc1cc(C)c(N)c(C)c1	32 to 34 °C
COc1ccc(C2NC(C(=O)O)CS2)cc1 (stereo not given)	150 to 151 °C
O=C(O)c1cc(-c2cccc(C(F)(F)F)c2)nc(C(F)(F)F)c1	185 to 186 °C
CC1=C(c2ccccc2F)C(=O)N(C(C)(C)C(O)c2ccc(F)c(C)c2)CO1 (stereo not given)	87.6 to 89 °C
CC(C)(O)C1CCN(c2ccc(C#N)c3ccccc23)CC1	133 to 134 °C
COc1cc(N)ccc1C(O)c1cc(C)ccn1 (stereo not given)	114 to 117 °C
COc1c(C)c2c(c(C)c1NC(=O)CC(C)(C)C)C(c1ccc(C(C)C)cc1)CO2 (stereo not given)	162 to 163 °C
CC(C)n1cc(-c2ccc(C(O)c3ccccc3)cc2)c2c(N)ncnc21 (stereo not given)	279 to 281 °C
COC(=O)c1c(N)ccc([N+](=O)[O-])c1C	92 to 94 °C
COC(=O)c1c(-c2ccccc2Cl)c2cc(C)cc(C)c2n(C)c1=O	128 to 129 °C
CCCCCCCCCCCC(=O)c1ccc(/C=C/C(=O)O)o1	122 to 127 °C
CC(C)CP1C(O)C(O)P(CC(C)C)C(O)C1O (stereo not given)	173 to 175 °C
CC1(C)CCC(C)(C)c2cc(-c3ccc4cc(O)ccc4c3)ccc21	104 °C
CC1=NOC(c2c(S(C)(=O)=O)ccc(C(=O)C3=C(O)CCCC3=O)c2C)C1 (stereo not given)	135 to 140 °C

More lines, now with the values ahead:

melting point	Compound
173 to 175 °C	COc1cc2ncc(C#N)c(Sc3cccc(Br)c3)c2cc1OC
161 °C	O=C(c1cc2ccccc2c(-c2ccccc2Cl)n1)N1CCCCC1
204 to 208 °C	CC1CSc2c(-c3ccccc3)c3ccccc3c(=O)n21 (stereo not given)
90 to 100 °C	Cc1ccc(-c2ccc(O)cc2)c(-c2ccc(OCCN3CCCCC3)cc2)n1
51.5 to 52.5 °C	COC(=O)CC(NC1CC1)=C(C(=O)OC)C(=O)C(F)(F)F
158 to 161 °C	COC(=O)c1cccc2cc(-c3ccc(N)cc3)oc12
232 to 233 °C	CCCc1ccc2nc(S(=O)(=O)CC)c(S(N)(=O)=O)n2n1
292 to 300 °C	CC12C=CC(=O)CC1CCC1C2CCC2(C)C(C(=O)NC3(C#N)CCCCC3)CCC12 (stereo not given)
160 to 161 °C	COc1cc(C(=O)N2CCN(C(=O)OC(C)(C)C)C(C=O)C2)cc(OC)c1OC (stereo not given)
155 to 157 °C	CCN(CC)c1nc2ccccc2n2c(C(F)(F)F)nnc12
70 to 74 °C	CC(=O)C(=Cc1ccc(Br)s1)C(C)=O
247 to 255 °C	Cc1oc(-c2ccc(Cl)cc2)cc1C(=O)Nc1cc(Cl)ccc1-c1nnn[nH]1
138 to 140 °C	O=S(=O)(CCCCl)Nc1cccc(Oc2cccc3cccnc23)c1
205 to 206 °C	C=COC(=O)NC1Cc2ccc(-c3ccc(=O)[nH]n3)cc2C1 (stereo not given)
102 to 104 °C	CC1(C)CON(Cc2ccc(N3C(=O)C4=C(CCCC4)C3=O)cc2Cl)C1=O
239 °C	NCC1CCN(CC(=O)Nc2cccc3c2C(=O)c2c-3n[nH]c2-c2ccc(N3CCNCC3)cc2)CC1
178 to 180 °C	COc1ccc(Br)cc1CC1CCCn2c1nc(-c1ccncn1)cc2=O (racemic)

Source: a melting point compilation (Tetko et al.; mined from patent text by program, amines drawn as free bases though some values may be those of a salt)
